Source: US10865191B2, “Heterocyclic compounds useful as modulators of TNF alpha” (BRISTOL-MYERS SQUIBB COMPANY, priority 2015, dated 2020)

Each molecule was assayed against TNFα (Homo sapiens, UniProt P01375) (assay: TNF induced HEK-Blue assay (NF-kB-driven secreted alkaline phosphatase reporter)). Conditions: TNF induced HEK-Blue assay IC50 value, TNFα 0.5 ng/mL, HEK-Blue-CD40L cells, 18 h.
Type: cell-based
Method in brief: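 HEK-Blue-CD40L cells (NF-kB-driven SEAP reporter), 20,000/well, added after 30 min pre-incubation of compound (0.004–25 μM final) with TNFα 0.5 ng/mL final at 37 °C; 18 h incubation. SEAP read with QUANTI-Blue at 620 nm; IC50 from 4-parameter logistic fit, normalized to unstimulated and stimulated DMSO controls.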

Chain of TNFα (P01375 77-233 limits assumed): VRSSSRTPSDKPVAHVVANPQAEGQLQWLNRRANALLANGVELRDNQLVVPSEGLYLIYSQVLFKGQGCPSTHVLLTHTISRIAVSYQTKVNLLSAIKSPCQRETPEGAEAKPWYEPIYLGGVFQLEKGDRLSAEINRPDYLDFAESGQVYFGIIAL

Row | Compound | IC50 [nM]
1 | CC(Nc1c(Cl)cnc2c(F)cc(-c3cnc(C(C)(C)O)nc3)cc12)c1ccccc1F (racemic) [Example 247, 2-(5-(3-chloro-8-fluoro-4-((1-(2-fluorophenyl)ethyl)amino)quinolin-6-yl)pyrimidin-2-yl)propan-2-ol] | < 1000

Same assay, conditions: TNFα 0.5 ng/mL, HEK-Blue-CD40L cells, 18 h; read-out: TNF induced HEK-Blue assay IC50 value

Row | Compound | IC50 [nM]
2 | CC(C)(O)c1ncc(-c2cc(F)c3ncc(Cl)c(N[C@@H](c4ccccc4F)C(F)F)c3c2)cn1 [Example 297, (S)-2-(5-(3-chloro-4-((2,2-difluoro-1-(2-fluorophenyl)ethyl)amino)-8-fluoroquinolin-6-yl)pyrimidin-2-yl)propan-2-ol] | < 1000
3 | C[C@@H](Nc1c(Cl)cnc2ccc(-c3cnc(N4CCN(Cc5nn[nH]n5)CC4)nc3)cc12)c1ccccc1F [Example 237, (R)-6-(2-(4-((2H-tetrazol-5-yl)methyl)piperazin-1-yl)pyrimidin-5-yl)-3-chloro-N-(1-(2-fluorophenyl)ethyl)quinolin-4-amine] | < 1000
4 | COC(=O)CN1CCN(c2ncc(-c3ccc4ncc(Cl)c(N[C@H](C)c5ccccc5F)c4c3)cn2)CC1 [Example 224] | < 1000
5 | CC(C)(O)c1ncc(-c2ccc3ncc(Cl)c(N[C@H](CCF)c4ccccc4F)c3c2)cn1 (single isomer, unassigned) [Example 238] | < 1000
6 | C[C@H](Nc1c(Cl)cnc2cc(F)c(-c3cnc(C(C)(C)O)nc3)nc12)c1ccccc1 [Example 208, (S)-2-(5-(7-chloro-3-fluoro-8-((1-phenylethyl)amino)-1,5-naphthyridin-2-yl)pyrimidin-2-yl)propan-2-ol] | < 1000
7 | Cc1ccc(C)c(Nc2c(Cl)c(CN=[N+]=[N-])nc3ccc(-c4ccc(C#N)nc4)cc23)c1 [Example 42, 5-(2-(azidomethyl)-3-chloro-4-((2,5-dimethylphenyl)amino)quinolin-6-yl)picolinonitrile] | 1000 to 10000
8 | C=CC[C@@H](Nc1c(Cl)cnc2ccc(-c3cnc(C(C)(C)O)nc3)cc12)c1cc(Cl)ccn1 [Example 63, (R)-2-(5-(3-chloro-4-((1-(4-chloropyridin-2-yl)but-3-en-1-yl)amino)quinolin-6-yl)pyrimidin-2-yl)propan-2-ol] | < 1000
9 | CCCC(C)C(=O)c1c(Cl)c(C)nc2ccc(-c3cnc(C(C)(C)O)nc3)cc12 (racemic) [Example 356, ± 1-(3-Chloro-6-(2-(2-hydroxypropan-2-yl)pyrimidin-5-yl)-2-methylquinolin-4-yl)-2-methylpentan-1-one] | 10000 to 25000
10 | CC(C)(O)c1ccc(-c2ccc3ncc(Cl)c(NC(CCF)c4ccccc4F)c3c2)cc1 (racemic) [Example 232, 2-(4-(3-chloro-4-((3-fluoro-1-(2-fluorophenyl)propyl)amino)quinolin-6-yl)phenyl)propan-2-ol] | < 1000
11 | CC(Nc1c(Cl)cnc2ccc(-c3ccc(C(C)(C)O)cc3)cc12)c1cnn(C)c1 (racemic) [Example 197, 2-(4-(3-chloro-4-((1-(1-methyl-1H-pyrazol-4-yl)ethyl)amino)quinolin-6-yl)phenyl)propan-2-ol] | 10000 to 25000
12 | Cc1nc2ccc(-c3cnc(C(C)(C)O)nc3)cc2c(N[C@H](C)c2cc(N)ccc2F)c1Cl [Example 360, (R)-2-(5-(4-((1-(5-amino-2-fluorophenyl)ethyl)amino)-3-chloro-2-methylquinolin-6-yl)pyrimidin-2-yl)propan-2-ol] | < 1000
13 | CC(Cc1cn(C)c(=O)c2ccccc12)Nc1c(Cl)cnc2ccc(-c3cnc(C(C)(C)O)nc3)cc12 (racemic) [Example 138, 4-(2-((3-chloro-6-(2-(2-hydroxypropan-2-yl)pyrimidin-5-yl)quinolin-4-yl)amino)propyl)-2-methylisoquinolin-1(2H)-one] | 10000 to 25000
14 | C[C@@H](Nc1c(Cl)cnc2ccc(-c3cnc(C(C)(C)O)nc3)cc12)c1cccc(Br)c1 [Example 319, (R)-2-(5-(4-((1-(3-bromophenyl)ethyl)amino)-3-chloroquinolin-6-yl)pyrimidin-2-yl)propan-2-ol] | < 1000
15 | CC(C)(O)c1ncc(-c2ccc3ncc(Cl)c(NC(c4ccccc4F)C4CC4)c3c2)cn1 (racemic) [Example 191, 2-(5-(3-chloro-4-((cyclopropyl(2-fluorophenyl)methyl)amino)quinolin-6-yl)pyrimidin-2-yl)propan-2-ol] | < 1000
16 | COC(=O)[C@H](CN)N1CCN(c2ncc(-c3ccc4ncc(Cl)c(N[C@H](C)c5ccccc5F)c4c3)cn2)CC1 [Example 99, methyl (S)-3-amino-2-(4-(5-(3-chloro-4-(((R)-1-(2-fluorophenyl)ethyl)amino)quinolin-6-yl)pyrimidin-2-yl)piperazin-1-yl) propanoate] | 1000 to 10000
17 | CCC(Nc1c(Cl)cnc2ccc(-c3cnc(C(C)(C)O)nc3)cc12)c1nc(C(N)=O)ccc1F (stereo not drawn) [Example 129, 6-(1-((3-chloro-6-(2-(2-hydroxypropan-2-yl)pyrimidin-5-yl)quinolin-4-yl)amino)propyl)-5-fluoropicolinamide] | < 1000
18 | C[C@@H](Nc1c(Cl)cnc2ccc(-c3cnc(C4(O)CCC(=O)CC4)nc3)cc12)c1ccccc1F [Example 114, (R)-4-(5-(3-chloro-4-((1-(2-fluorophenyl)ethyl)amino)quinolin-6-yl)pyrimidin-2-yl)-4-hydroxycyclohexanone] | < 1000
19 | CC(Nc1c(Cl)cnc2ccc(-c3cnc(C(C)(C)O)nc3)cc12)C1(c2ccc(Cl)cc2)CCCC1 (racemic) [Example 142, 2-(5-(3-chloro-4-((1-(1-(4-chlorophenyl)cyclopentyl)ethyl)amino)quinolin-6-yl)pyrimidin-2-yl)propan-2-ol] | 10000 to 25000
20 | C[C@@H](Nc1c(Cl)cnc2ccc(-c3cnc(C4(O)CCCC4)nc3)cc12)c1ccccc1F [Example 120, (R)-1-(5-(3-chloro-4-((1-(2-fluorophenyl)ethyl)amino)quinolin-6-yl)pyrimidin-2-yl)cyclopentan-1-ol] | < 1000
21 | CC(=O)NCc1ccc(-c2ccc3ncc(Cl)c(N[C@H](C)c4ccccc4F)c3c2)cc1 [Example 110, (R)—N-(4-(3-chloro-4-((1-(2-fluorophenyl)ethyl)amino)quinolin-6-yl)benzyl)acetamide] | < 1000
22 | C=CC(=O)N(C)c1ncc(-c2ccc3ncc(Cl)c(N[C@H](C)c4ccccc4F)c3c2)cn1 [Example 124, (R)—N-(5-(3-chloro-4-((1-(2-fluorophenyl)ethyl)amino)quinolin-6-yl)pyrimidin-2-yl)-N-methylacrylamide] | < 1000
23 | C[C@H](Nc1c(Cl)cnc2cnc(-c3cnc(N4CCN(CC(=O)O)CC4)nc3)cc12)c1ccccc1F (single isomer, unassigned) [Example 236] | 10000 to 25000

Second part, the molecule after the results:

Row | IC50 [nM] | Compound
24 | 1000 to 10000 | C[C@@H](Nc1c(Cl)cnc2ccc(-c3cnc(C(C)(C)O)nc3)cc12)c1cc(C#Cc2ccccc2)ccc1F [Example 411, (R)-2-(5-(3-chloro-4-((1-(2-fluoro-5-(phenylethynyl)phenyl)ethyl)amino)quinolin-6-yl)pyrimidin-2-yl)propan-2-ol]
25 | < 1000 | CC(Nc1c(Cl)cnc2cc(F)c(-c3cnc(N4CCN(C(=O)CCC(=O)O)CC4)nc3)cc12)c1ccccc1F (single isomer, unassigned) [Example 602, 4-(4-(5-(3-chloro-7-fluoro-4-((1-(2-fluorophenyl)ethyl)amino)quinolin-6-yl)pyrimidin-2-yl)piperazin-1-yl)-4-oxobutanoic acid]
26 | < 1000 | Cc1nc2ccc(-c3cnc(C(C)(C)O)nc3)cc2c(N[C@H](C)c2cc(C(O)CO)ccc2F)c1Cl (mixture of isomers) [Example 397, 1-(3-((R)-1-((3-chloro-6-(2-(2-hydroxypropan-2-yl)pyrimidin-5-yl)-2-methylquinolin-4-yl)amino)ethyl)-4-fluorophenyl)ethane-1,2-diol]
27 | < 1000 | Cc1nc2cc(F)c(-c3cnc(C(C)(C)O)nc3)cc2c(N[C@H](C)c2cc(CCC(N)=O)ccc2F)c1Cl [Example 445, (R)-3-(3-(1-((3-chloro-7-fluoro-6-(2-(2-hydroxypropan-2-yl)pyrimidin-5-yl)-2-methylquinolin-4-yl)amino)ethyl)-4-fluorophenyl)propanamide]
28 | < 1000 | CCn1cc(-c2ccc(F)c([C@@H](C)Nc3c(Cl)cnc4ccccc34)c2)cn1 [Example 473, (R)-3-chloro-N-(1-(5-(1-ethyl-1H-pyrazol-4-yl)-2-fluorophenyl)ethyl)quinolin-4-amine]
29 | < 1000 | C[C@@H](Nc1c(Cl)cnc2ccc(-c3cnc(C(C)(C)O)nc3)cc12)c1cc(N2CCOCC2=O)ccc1F [Example 369, (R)-4-(3-(1-((3-chloro-6-(2-(2-hydroxypropan-2-yl)pyrimidin-5-yl)quinolin-4-yl)amino)ethyl)-4-fluorophenyl) morpholin-3-one]
30 | < 1000 | C[C@@H](Nc1c(Cl)cnc2cc(F)c(-c3cnc(C(C)(C)O)nc3)nc12)c1cc(C(O)CO)ccc1F (stereo partly drawn) [Example 504, 1-(3-((R)-1-((3-chloro-7-fluoro-6-(2-(2-hydroxypropan-2-yl)pyrimidin-5-yl)-1,5-naphthyridin-4-yl)amino)ethyl)-4-fluorophenyl)ethane-1,2-diol]
31 | < 1000 | CC(C)(O)c1ncc(-c2nc3c(N[C@H](c4cc(C(N)=O)ccc4F)C(F)F)c(Cl)cnc3cc2F)cn1 [Example 487, (R)-3-(1-((3-chloro-7-fluoro-6-(2-(2-hydroxypropan-2-yl)pyrimidin-5-yl)-1,5-naphthyridin-4-yl)amino)-2,2-difluoroethyl)-4-fluorobenzamide]
32 | < 1000 | C[C@@H](Nc1c(Cl)cnc2ccc(-c3cnc(C(C)(C)O)nc3)cc12)c1cc(-c2c[nH]nn2)ccc1F [Example 419, (R)-2-(5-(3-chloro-4-((1-(2-fluoro-5-(1H-1,2,3-triazol-4-yl)phenyl)ethyl)amino)quinolin-6-yl)pyrimidin-2-yl)propan-2-ol]
33 | 1000 to 10000 | C=CCOc1ccc(F)c([C@@H](C)Nc2c(Cl)cnc3ccccc23)c1 [Example 457, (R)—N-(1-(5-(allyloxy)-2-fluorophenyl)ethyl)-3-chloroquinolin-4-amine]
